Laboratory results from patent US6723897B2, “Methods for controlling gibberellin levels” (Monsanto Technology, LLC, priority 1998, dated 2004).

Experiments:
[1] = test system: wild-type soybean line A3237; assay: Experiment II second greenhouse test, seed imbibition, wild-type soybean; type: in vivo, Glycine max; details: 0.025 mg/ml; seeds imbibed 6 hours
Procedure, shortened: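 Twenty seeds per treatment were imbibed 6 hours in test solutions, with dry, 1% ethanol and water-imbibed controls. Seeds were then planted and grown three weeks in the greenhouse with sub-irrigation, under 16 h light/8 h dark at 300-400 μmol m^−2 s^−1. Scoring covered dwarf, intermediate and tall plant counts, plant height, uniformity of rescue and visual effects.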

[2] = test system: wild-type soybean line A4922; assay: Field trial of seed coating application rates, wild-type soybean
Procedure, shortened: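 GA compounds seed-coated at 0–100 μg/seed (GA12 also 50 μg/seed), acetone carrier, versus untreated dry seed. Sown in light and heavy soil, drip-irrigated, three replicates in randomized blocks. Emergence, unrescued dwarfs, plant height and uniformity scored; LSD at 0.05.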

[3] = test system: transgenic line 719 soybean; assay: Field trial of seed coatings under soil compaction / different soils, GA-deficient soybean; type: in vivo, Glycine max; details: for Count (emergence) / Dwarfs (number of dwarfs not rescued) / Dwarfs (number not rescued): Line 719
[4] = test system: non-transgenic soybean line A4922; assay: Field trial of seed coatings under soil compaction / different soils, wild-type soybean; type: in vivo, Glycine max; details: for Count (emergence) / Height (total plant height): A4922
Experimental: The second trial (data reported in Tables 22-24) tested the precursors under conditions of soil compaction.
As noted above, the second trial tested the noted precursors under conditions of soil compaction. These experiments are performed in the same manner as in the first trial, except that the soil is compacted with an all-terrain vehicle.
“Height” equals total plant height in cm.

[5] = Heavy soil - Loose, target rate 0.5 μg/seed, Table 23
[6] = Heavy soil - Loose, target rate 2.0 μg/seed, Table 23
[7] = Heavy soil - Loose, target rate 4.0 μg/seed, Table 23
[8] = Heavy soil - compacted, target rate 0.5 μg/seed, Table 23
[9] = Heavy soil - compacted, target rate 2.0 μg/seed, Table 23
[10] = Heavy soil - compacted, target rate 4.0 μg/seed, Table 23
[11] = Heavy soil - loose, target rate 0.5 μg/seed, Table 22
[12] = Heavy soil - loose, target rate 2.0 μg/seed, Table 22
[13] = Light soil - Compacted, target rate 0.5 μg/seed, Table 22
[14] = Light soil - Compacted, target rate 2.0 μg/seed, Table 22
[15] = Light soil - Loose, target rate 0.5 μg/seed, Table 24
[16] = Light soil - Loose, target rate 2.0 μg/seed, Table 24
[17] = Light soil - Loose, target rate 4.0 μg/seed, Table 24
[18] = Light soil - compacted, target rate 0.5 μg/seed, Table 24
[19] = Light soil - compacted, target rate 2.0 μg/seed, Table 24
[20] = Light soil - compacted, target rate 4.0 μg/seed, Table 24

Compound: C=C1C[C@]23C[C@@]1(O)CC[C@H]2[C@@]12CC=C[C@@](C)(C(=O)O1)[C@H]2[C@@H]3C(=O)O [GA5]
- Significant Visual Observations on Line A3237 [1]: Normal height
- A4922 Height, cm, Heavy soil ([2]; 0.1 μg compound per seed): 4.3 ghi cm
- A4922 Height, cm, Light soil ([2]; 0.1 μg compound per seed): 6.0 fgh cm
- No. A4922 Emerged, Heavy soil ([2]; 0.1 μg compound per seed): 32.3 b-g
- No. A4922 Emerged, Light soil ([2]; 0.1 μg compound per seed): 51.7 bcd
- A4922 Height, cm, Heavy soil ([2]; 1 μg compound per seed): 7.0 ef cm
- A4922 Height, cm, Light soil ([2]; 1 μg compound per seed): 7.3 fg·cm
- No. A4922 Emerged, Heavy soil ([2]; 1 μg compound per seed): 37.3 b-f
- No. A4922 Emerged, Light soil ([2]; 1 μg compound per seed): 47.3 c-g
- A4922 Height, cm, Heavy soil ([2]; 10 μg compound per seed): 17.3 b cm
- A4922 Height, cm, Light soil ([2]; 10 μg compound per seed): 16.3 c cm
- No. A4922 Emerged, Heavy soil ([2]; 10 μg compound per seed): 32.7 b-g
- No. A4922 Emerged, Light soil ([2]; 10 μg compound per seed): 45.7 c-h
- A4922 Height, cm, Heavy soil ([2]; 100 μg compound per seed): 22.3 a cm
- A4922 Height, cm, Light soil ([2]; 100 μg compound per seed): 29.7 a cm
- No. A4922 Emerged, Heavy soil ([2]; 100 μg compound per seed): 38.3 b-e
- No. A4922 Emerged, Light soil ([2]; 100 μg compound per seed): 46.7 c-g
- Count (emergence) [3, 5]: 31.7 bcd
- Dwarfs (number of dwarfs not rescued) [3, 5]: 2.0 cde
- Count (emergence) [3, 6]: 32.3 bcd
- Dwarfs (number of dwarfs not rescued) [3, 6]: 0.7 cde
- Count (emergence) [3, 7]: 30.3 bcd
- Dwarfs (number of dwarfs not rescued) [3, 7]: 0 e
- Count (emergence) [3, 8]: 18.3 ab
- Dwarfs (number of dwarfs not rescued) [3, 8]: 0 days
- Count (emergence) [3, 9]: 9.0 g·days
- Dwarfs (number of dwarfs not rescued) [3, 9]: 0 days
- Count (emergence) [3, 10]: 7.0 efg
- Dwarfs (number of dwarfs not rescued) [3, 10]: 0 days
- Count (emergence) [3, 11]: 32 bcd
- Dwarfs (number of dwarfs not rescued) [3, 11]: 2.0 cde
- Count (emergence) [3, 12]: 32 bcd
- Dwarfs (number of dwarfs not rescued) [3, 12]: 0.7 cde
- Count (emergence) [3, 13]: 39 abc
- Dwarfs (number of dwarfs not rescued) [3, 13]: 0 days
- Count (emergence) [3, 14]: 30 a-f
- Dwarfs (number of dwarfs not rescued) [3, 14]: 0 days
- Count (emergence) [3, 15]: 46.3 a
- Dwarfs (number not rescued) [3, 15]: 1.0 e
- Count (emergence) [3, 16]: 43.3 ab
- Dwarfs (number not rescued) [3, 16]: 0 e
- Count (emergence) [3, 17]: 45.0 ab
- Dwarfs (number not rescued) [3, 17]: 0 e
- Count (emergence) [3, 18]: 39.0 abc
- Dwarfs (number not rescued) [3, 18]: 0
- Count (emergence) [3, 19]: 30.3 a-f
- Dwarfs (number not rescued) [3, 19]: 0
- Count (emergence) [3, 20]: 32.7 a-e
- Dwarfs (number not rescued) [3, 20]: 0
- rank of potential for rescuing GA-deficient dwarf soybeans without decreasing emergence ([3]; based on the last two field trials): GA9>GA5>GA3-3-acetate>GA3>GA12
- best to least selectivity order ([3]; emergence under soil compaction, margin of selectivity, rescue without overelongation, Table 22): GA9>GA5>GA3-3-acetate>GA3
- Count (emergence) [4, 5]: 32.0 abc
- Height (total plant height) [4, 5]: 5.3 g·cm·days
- Count (emergence) [4, 6]: 24.7 de
- Height (total plant height) [4, 6]: 6.7 bcd cm
- Count (emergence) [4, 7]: 26.7 b-e
- Height (total plant height) [4, 7]: 9.0 a cm
- Count (emergence) [4, 8]: 13.7 abc
- Height (total plant height) [4, 8]: 4.7 cde cm
- Count (emergence) [4, 9]: 9.0 bcd
- Height (total plant height) [4, 9]: 6.7 ab cm
- Count (emergence) [4, 10]: 6.7 cde
- Height (total plant height) [4, 10]: 6.7 ab cm
- Count (emergence) [4, 11]: 32 abc
- Height (total plant height) [4, 11]: 5.3 g·cm·days
- Count (emergence) [4, 12]: 25 cde
- Height (total plant height) [4, 12]: 6.7 bcd cm
- Count (emergence) [4, 13]: 37 abc
- Height (total plant height) [4, 13]: 6.7 cm·days
- Count (emergence) [4, 14]: 22 de
- Height (total plant height) [4, 14]: 9.0 c cm
- Count (emergence) [4, 15]: 44.7 ab
- Height (total plant height) [4, 15]: 6.0 fg·cm
- Count (emergence) [4, 16]: 41.0 abc
- Height (total plant height) [4, 16]: 10.0 bc cm
- Count (emergence) [4, 17]: 43.3 abc
- Height (total plant height) [4, 17]: 12.7 a cm
- Count (emergence) [4, 18]: 36.7 abc
- Height (total plant height) [4, 18]: 6.7 cm·days
- Count (emergence) [4, 19]: 21.7 de
- Height (total plant height) [4, 19]: 9.0 c cm
- Count (emergence) [4, 20]: 18.7 def
- Height (total plant height) [4, 20]: 11.7 a cm
- plant height dose/response in wild-type line A4922 (FIG. 40) ([4]; ten days after planting, compacted soil): dose/response curves similar to that of GA3
